# Tests used:
# [1] = molecular target: T1, immobilized human serum albumin (Homo sapiens, UniProt P02768); experiment: Albumin binding: affinity chromatography on columns with immobilized human serum albumin (net retention time); conditions: isolated binders; HSA column 25° C., PBS pH 7.4/isopropanol gradient
# T1 construct: purchased Chiralpak (Chiraltech) 34712
# Procedure: In order to identify suitable binder molecules, which when bound to a peptide, such as an insulin, are able to improve the half-life in plasma and to prolong the profile of action, a system was established based on affinity chromatography with serum albumin columns, i.e. columns with immobilized serum albumin.
# The net retention time of the binders (samples) was calculated according to the following formula: Net retention time=RetTimeSample−RetTimet0 marker
# • Instrument: Waters Alliance 2795/Waters PDA 2996 or Waters H-Class UPLC equipped with a Waters Acquity photodiode-array detector • Software: Waters Empower 3 • Column: […]® HSA 50×4 mm; 5 μm Particle size • Chiraltech Order Numbers: HSA: 34712 • Eluent A: Phosphate Buffer saline (PBS) at pH=7.4 • Gibco PBS pH7.4 (10×) Phosphate Buffered Saline 500 ml; • Order Number: 70011-036 (500 ml) • Eluent B: Isopropanol • Fisher Order Number: A461-1 (10 • Gradient:
# • Column temperature: 25° C. • Flow rate: 1.0 ml/min • Detection: λ=220 nm • Injection volume: 20 μL • Sample Conc.: 1 mg/ml insulin solution in PBS for insulin samples • 5 μL of 10 mM DMSO stock solution (DMSO evaporated and re-dissolved in 200 μL i-propanol/water 1:1 v/v) for isolated binder samples (250 μM, 0.2 mg/ml at 800 Da MolWeight) • t0 marker Sodium Nitrate (NaNO3) solution in water, 0.05 mg/ml • Diluted from aqueous 1 mg/ml stock solution (Fluka Order Number: 74246-100ML) • Reported Value Net retention time of sample: RetTime Sample−RetTime t0 marker
# Affinity chromatography was carried out i) for insulin conjugates according to Examples 3.3 and 3.4 on a Waters Alliance Separation Module 2695 equipped with a Waters photodiode-array detector 2996 or Waters H-Class UPLC equipped with a Waters Acquity photodiode-array detector and ii) for isolated binders according to Example 2.11 on a Waters Alliance Separation Module 2795 equipped with a Waters photodiode-array detector 2996 or Waters H-Class UPLC equipped with a Waters Acquity photodiode-array detector.
# Columns with immobilized human serum albumin (50×4 mm; 5 μm particle size) were purchased from Chiralpak and used for separations.
# The columns with immobilized serum albumin were kept at 25° C. during the LC run, UV detection was carried out at 220 nm and injection volume was 20 μL.
# The net retention time of the samples was reported according to Net retention time=RetTime Sample−RetTime t0 marker
# [2] = molecular target: insulin receptor isoform B (IR-B) (Homo sapiens, UniProt P06213); experiment: Insulin receptor autophosphorylation assay (In-Cell Western, CHO cells, Example 8B); assay type: cell-based; design: expressed in transfected cells; host or cells: CHO cells; conditions: relative to human insulin
# insulin receptor isoform B (IR-B), sequence (P06213 28-758 limits assumed): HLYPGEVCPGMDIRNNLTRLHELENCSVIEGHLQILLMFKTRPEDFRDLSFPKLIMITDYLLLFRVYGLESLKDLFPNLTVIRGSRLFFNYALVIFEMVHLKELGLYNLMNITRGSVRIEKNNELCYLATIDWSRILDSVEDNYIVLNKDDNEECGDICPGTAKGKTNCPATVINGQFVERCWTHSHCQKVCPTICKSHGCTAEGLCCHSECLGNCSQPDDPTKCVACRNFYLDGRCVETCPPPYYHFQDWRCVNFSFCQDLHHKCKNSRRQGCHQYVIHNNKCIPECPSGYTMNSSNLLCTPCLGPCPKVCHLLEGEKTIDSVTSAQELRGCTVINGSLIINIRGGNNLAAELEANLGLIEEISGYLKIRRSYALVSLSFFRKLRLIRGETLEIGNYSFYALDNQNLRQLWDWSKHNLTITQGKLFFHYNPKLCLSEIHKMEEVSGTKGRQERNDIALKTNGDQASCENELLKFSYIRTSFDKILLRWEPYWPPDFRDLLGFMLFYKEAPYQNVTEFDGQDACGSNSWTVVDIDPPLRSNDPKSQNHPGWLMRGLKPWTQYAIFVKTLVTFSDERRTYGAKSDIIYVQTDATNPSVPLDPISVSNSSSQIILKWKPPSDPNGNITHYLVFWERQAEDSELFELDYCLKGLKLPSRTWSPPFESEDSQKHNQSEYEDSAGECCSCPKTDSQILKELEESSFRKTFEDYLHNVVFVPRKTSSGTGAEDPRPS
# insulin receptor isoform B (IR-B), sequence (P06213 763-1382 limits assumed): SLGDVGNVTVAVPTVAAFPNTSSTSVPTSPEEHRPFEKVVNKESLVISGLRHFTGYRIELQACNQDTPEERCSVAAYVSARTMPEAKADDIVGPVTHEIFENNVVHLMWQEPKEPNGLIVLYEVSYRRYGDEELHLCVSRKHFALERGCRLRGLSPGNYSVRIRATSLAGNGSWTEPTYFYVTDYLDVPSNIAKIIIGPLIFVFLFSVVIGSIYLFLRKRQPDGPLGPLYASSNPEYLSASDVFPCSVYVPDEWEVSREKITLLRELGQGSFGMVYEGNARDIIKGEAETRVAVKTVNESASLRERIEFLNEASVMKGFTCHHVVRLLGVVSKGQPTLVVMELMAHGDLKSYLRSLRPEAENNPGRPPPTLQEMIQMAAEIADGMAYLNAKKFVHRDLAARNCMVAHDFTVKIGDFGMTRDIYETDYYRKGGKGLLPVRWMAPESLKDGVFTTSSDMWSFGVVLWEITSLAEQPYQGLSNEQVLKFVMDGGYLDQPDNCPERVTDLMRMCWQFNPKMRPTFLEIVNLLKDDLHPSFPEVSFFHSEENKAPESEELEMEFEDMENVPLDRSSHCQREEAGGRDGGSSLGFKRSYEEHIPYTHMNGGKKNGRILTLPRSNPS
# T1 sequence (P02768 25-609): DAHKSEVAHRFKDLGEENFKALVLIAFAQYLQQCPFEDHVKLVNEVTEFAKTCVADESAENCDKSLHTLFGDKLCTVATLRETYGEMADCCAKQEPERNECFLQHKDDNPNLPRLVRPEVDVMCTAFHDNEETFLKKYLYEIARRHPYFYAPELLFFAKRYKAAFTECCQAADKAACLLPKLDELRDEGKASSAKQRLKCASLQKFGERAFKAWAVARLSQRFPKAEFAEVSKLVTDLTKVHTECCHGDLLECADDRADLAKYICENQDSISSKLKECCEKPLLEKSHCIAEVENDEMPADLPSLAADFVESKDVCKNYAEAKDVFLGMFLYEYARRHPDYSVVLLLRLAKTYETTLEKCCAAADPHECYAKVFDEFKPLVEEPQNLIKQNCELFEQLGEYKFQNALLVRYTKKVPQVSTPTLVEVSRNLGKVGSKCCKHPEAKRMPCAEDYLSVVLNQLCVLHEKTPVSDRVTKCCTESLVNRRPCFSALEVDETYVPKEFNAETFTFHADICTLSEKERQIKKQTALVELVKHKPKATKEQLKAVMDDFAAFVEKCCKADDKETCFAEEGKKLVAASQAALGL
NRT [min] (net retention time on columns with immobilized human serum albumin) [1],SMILES,autophosphorylation activity [2]
14.74 min,O=C(O)CCCCCCCCCCCCCCCOc1cccc(S(=O)(=O)Nc2ncc(C(=O)NCCOCCOCC(=O)NCCOCCOCC(=O)O)cn2)c1 [Binder 68],–
14.56 min,O=C(O)CCCCCCCCCc1ccc(Oc2ccc(S(=O)(=O)Nc3ncc(C(=O)NCCOCCOCC(=O)NCCOCCOCC(=O)O)cn3)cc2)cc1F [Binder 52],–
9.87 min,O=C(O)CCCCCCCCCc1ccc(S(=O)(=O)Nc2ncc(C(=O)NCCOCCOCC(=O)NCCOCCOCC(=O)O)cn2)cc1 [Binder 66],–
12.29 min,O=C(O)CCCCCCCCCCCc1ccc(S(=O)(=O)Nc2ncc(C(=O)NCCOCCOCC(=O)NCCOCCOCC(=O)O)cn2)cc1 [Binder 53],–
14.78 min,O=C(O)CCCCCCCCCCCCCc1ccc(OCc2ccc(S(=O)(=O)Nc3ncc(C(=O)NCCOCCOCC(=O)NCCOCCOCC(=O)O)cn3)cc2)cc1 [Binder 64],–

# More lines, now with the values behind:
SMILES,NRT [min] (net retention time on columns with immobilized human serum albumin) [1],autophosphorylation activity [2]
O=C(O)CCCCCCCCCCCCCc1cccc(S(=O)(=O)Nc2ncc(C(=O)NCCOCCOCC(=O)NCCOCCOCC(=O)O)cn2)c1 [Binder 29],15.66 min,0.01
O=C(O)CCCCCCCCCCCc1ccc(Oc2ccc(S(=O)(=O)Nc3ccc(C(=O)NCCOCCOCC(=O)NCCOCCOCC(=O)O)cn3)cc2)cc1 [Binder 27],15.01 min,0.11
O=C(O)CCCCCCCCCCCc1cccc(S(=O)(=O)Nc2ccc(C(=O)NCCOCCOCC(=O)NCCOCCOCC(=O)O)cn2)c1 [Binder 65],12.21 min,–
O=C(O)CCCCCCCCCCCCCc1cccc(S(=O)(=O)Nc2ccc(C(=O)NCCOCCOCC(=O)NCCOCCOCC(=O)O)cn2)c1 [Binder 21],16.26 min,–
O=C(O)CCCCCCCCCCCCCc1ccc(OCc2ccc(S(=O)(=O)Nc3ccc(C(=O)NCCOCCOCC(=O)NCCOCCOCC(=O)O)cn3)cc2)cc1 [Binder 44],15.04 min,–
O=C(O)CCCCCCCCCCCCCc1cc(Oc2ccc(S(=O)(=O)Nc3ncc(C(=O)NCCOCCOCC(=O)NCCOCCOCC(=O)O)cn3)cc2)ccc1F [Binder 8],15.29 min,0.17
O=C(O)CCCCCCCCCCCCCCOc1ccc(S(=O)(=O)Nc2ncc(C(=O)CCCCCCC(=O)NCCOCCOCC(=O)NCCOCCOCC(=O)O)cn2)cc1 [Binder 6],14.31 min,0.32
O=C(O)CCCCCCCCCCCCCc1ccc(Oc2ccc(S(=O)(=O)Nc3ccc(C(=O)NCCOCCOCC(=O)NCCOCCOCC(=O)O)cn3)cc2)cc1 [Binder 42],14.35 min,–
